# Laboratory results published in patent publication US20200022995A1, “Novel Immunodulating Small Molecules” (AyuVis Research, Inc., priority 2018, published 2020).
# Experiments:
# hPBMC = test: Cytotoxicity in hPBMC (MTT); format: cell-based, human; conditions: 0.1, 1.0, 10, 100 and 1000 μM, 24 h
# Experimental: The cells were treated with compounds and incubated for 24 h. Cell viability was assessed using MTT cell proliferation kit (Promega). All the compounds were not toxic to hPMBC (FIG. 12).
# HUVECs [1] = test: Cytotoxicity in HUVECs (MTT); format: cell-based, human; conditions: 100 μM, 24 h
# Experimental: Selected TLR2/4 antagonist compounds 2, 6, 7, 8, 14, 17 and 32 were evaluated for cytotoxicity in HUVECs at 100 μM concentration. The cells were treated with compounds and incubated for 24 h. Cell viability was assessed using MTT cell proliferation kit (Promega). All the compounds were not toxic to HUVECs (FIG. 15).
# HUVECs [2] = test: Anti-angiogenic activity, VEGF induced tube formation in HUVECs; format: cell-based, human; conditions: VEGF 100 ng/mL
# Experimental: Selected TLR2/4 antagonist compounds 2, 6, 7, 8, 14, 17 and 32 were evaluated for anti-angiogenic activity using the Tube Formation kit (Cat #3470-096-K). VEGF (100 ng/mL) was used as positive control. These compounds have potential applications in diseases associated with pathological angiogenesis such as solid tumor, […], diabetic retinopathy as well as AMD.
# TLR9 = target: T1, TLR9 (Homo sapiens, UniProt Q9NR96); test: IFN-α ELISA in hPBMC with TLR9 ligand ODN2216; format: cell-based; conditions: 48 h
# T1 construct: endogenous in cells; host or cells: hPBMC
# T1 sequence (Q9NR96 26-1032): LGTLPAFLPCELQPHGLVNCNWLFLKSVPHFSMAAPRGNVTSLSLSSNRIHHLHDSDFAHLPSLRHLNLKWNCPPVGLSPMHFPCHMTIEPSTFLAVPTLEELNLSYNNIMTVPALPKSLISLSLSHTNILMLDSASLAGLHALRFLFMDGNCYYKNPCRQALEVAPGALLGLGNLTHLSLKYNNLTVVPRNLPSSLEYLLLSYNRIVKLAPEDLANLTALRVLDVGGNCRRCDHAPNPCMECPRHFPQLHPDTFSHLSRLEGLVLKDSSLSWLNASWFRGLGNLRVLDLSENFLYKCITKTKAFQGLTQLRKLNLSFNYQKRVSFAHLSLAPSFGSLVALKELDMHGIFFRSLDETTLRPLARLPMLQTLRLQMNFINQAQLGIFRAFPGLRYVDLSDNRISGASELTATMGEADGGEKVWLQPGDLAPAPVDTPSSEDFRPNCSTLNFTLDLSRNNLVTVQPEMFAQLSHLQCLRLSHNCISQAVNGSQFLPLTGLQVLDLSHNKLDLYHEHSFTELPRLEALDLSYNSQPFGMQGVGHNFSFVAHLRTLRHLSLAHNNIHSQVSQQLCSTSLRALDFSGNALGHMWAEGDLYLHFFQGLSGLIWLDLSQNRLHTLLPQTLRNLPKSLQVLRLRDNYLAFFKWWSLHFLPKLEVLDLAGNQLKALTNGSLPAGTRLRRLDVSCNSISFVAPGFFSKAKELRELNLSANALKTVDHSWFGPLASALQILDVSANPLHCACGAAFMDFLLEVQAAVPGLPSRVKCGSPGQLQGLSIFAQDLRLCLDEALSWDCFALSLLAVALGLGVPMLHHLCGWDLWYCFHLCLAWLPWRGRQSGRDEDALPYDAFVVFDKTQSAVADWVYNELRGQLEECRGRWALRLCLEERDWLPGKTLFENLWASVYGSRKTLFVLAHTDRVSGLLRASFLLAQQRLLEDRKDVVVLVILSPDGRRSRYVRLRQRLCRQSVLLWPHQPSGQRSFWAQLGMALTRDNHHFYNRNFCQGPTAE
# Experimental: Compound 8 antagonizes the TLR9 activities and downregulates the production of IFN-α in combination with TLR9 ligand ODN2216 in hPBMC after 48 h of treatment as detected by ELISA (FIG. 11).
# TLR7/8 = test: IL-1β ELISA in hPBMC, alone or with TLR7/8 ligand CL075; format: cell-based, human
# Source text: Compound 8 modulates the TLR7/8 activities in a concentration dependent manner.
# neonatal pups with BPD = test: Hyperoxia mouse model of BPD (newborn pups); format: in vivo
# TLR4 = TLR4 (Homo sapiens, UniProt O00206); test: TLR4 inhibitory and activating activity in THP-1 cells; format: cell-based; parameters: endogenous in cells; host or cells: THP-1 monocytes, PMA-stimulated
# [3] = tested on: LPS-induced lung injury in mice; test: LPS-induced ALI model; format: in vivo, C57BL/6 mice; conditions: IP
# Source text: Male C57BL/6 mice (Jackson Laboratories,) 12-15 weeks old, 25-28 gms, housed up to 5 per cage were used.
# The lungs were sectioned for histopathological assessment after H/E staining while the BAL fluid was used to detect total cell counts (neutrophils and macrophages) and measure protein (that exudes by leakage).
# TLR4, sequence (O00206 24-839): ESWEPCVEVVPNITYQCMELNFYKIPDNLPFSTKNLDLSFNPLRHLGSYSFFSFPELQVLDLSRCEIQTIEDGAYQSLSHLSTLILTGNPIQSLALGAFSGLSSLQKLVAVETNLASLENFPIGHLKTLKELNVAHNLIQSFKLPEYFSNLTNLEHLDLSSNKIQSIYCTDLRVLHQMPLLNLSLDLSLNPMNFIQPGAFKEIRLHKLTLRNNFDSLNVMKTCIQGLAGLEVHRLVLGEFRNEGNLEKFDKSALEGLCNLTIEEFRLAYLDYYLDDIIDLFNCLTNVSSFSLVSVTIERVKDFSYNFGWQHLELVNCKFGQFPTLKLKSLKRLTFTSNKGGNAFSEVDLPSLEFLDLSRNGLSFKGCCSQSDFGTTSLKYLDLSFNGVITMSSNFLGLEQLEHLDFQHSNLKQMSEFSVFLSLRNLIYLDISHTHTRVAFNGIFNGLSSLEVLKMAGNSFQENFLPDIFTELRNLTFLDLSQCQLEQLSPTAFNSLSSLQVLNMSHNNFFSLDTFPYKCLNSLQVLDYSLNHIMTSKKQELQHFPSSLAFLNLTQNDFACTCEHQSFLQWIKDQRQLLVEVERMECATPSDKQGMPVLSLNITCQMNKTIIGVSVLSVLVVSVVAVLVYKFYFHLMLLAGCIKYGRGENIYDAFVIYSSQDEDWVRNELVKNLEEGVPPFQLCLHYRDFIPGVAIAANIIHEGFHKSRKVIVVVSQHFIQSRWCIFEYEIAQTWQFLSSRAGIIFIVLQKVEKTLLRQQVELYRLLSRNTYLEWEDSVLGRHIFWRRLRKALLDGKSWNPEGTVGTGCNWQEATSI
compound,measurement,setting,value
"CC(=O)N[C@H]1[C@H](Oc2ccc([N+](=O)[O-])cc2)O[C@H](CO)[C@@H](O)[C@@H]1O [Compound 8, p-Nitrophenyl 2-acetamido-2-deoxy-β-D-glucopyranoside]",cytotoxicity in hPBMC,hPBMC,not toxic
same,cytotoxicity in HUVECs,HUVECs [1],not toxic
same,VEGF induced tube formation,HUVECs [2],significantly deceased
same,production of IFN-α,TLR9,downregulates
same,IL-1β protein level,"TLR7/8; 0.1 μM to <1 μM, alone or with CL075, hPBMC, 24 h, ELISA",downregulate
same,production of IL-1β,"TLR7/8; 1.0 μM, alone and with CL075, hPBMC",significantly stimulated
same,hyperoxia induced BPD in mouse pups,"neonatal pups with BPD; IP and IV, saline solution, 5 mg/kg or 10 mg/kg on PN2 and PN4",prevent
same,"chord length, septal thickness and radial alveolar count of mouse lungs",neonatal pups with BPD; IP injection,improvement
same,inflammatory cytokines in lung tissue and serum,neonatal pups with BPD; after injection,decreased
same,TLR2/4 antagonist or TLR4 agonist activity as shown in Table-1,TLR4,potent TLR2/4 antagonists
same,protection against LPS induced lung injury,[3]; 10 mg/kg at 4 h and 12 h post LPS,significant protection
same,LPS-induced lung inflammation,"[3]; 10 mg/kg, mice",ameliorated
